IC50 data for 20 compounds are collected here from patent publication US20260085062A1, “NOVEL COMPOUNDS AS CK2 INHIBITORS” (Cambridge Enterprise Limited, priority 2022, published 2026).

One test has as its target T1, CK2α (Homo sapiens, UniProt P68400).
T1 construct: CK2α (residues 2-329) was produced in Escherichia coli BL21 (DE3) for kinase activity screening; His6 (N, cleaved yes); made in house; host or cells: Escherichia coli BL21 (DE3)
T1 sequence (P68400 2-329): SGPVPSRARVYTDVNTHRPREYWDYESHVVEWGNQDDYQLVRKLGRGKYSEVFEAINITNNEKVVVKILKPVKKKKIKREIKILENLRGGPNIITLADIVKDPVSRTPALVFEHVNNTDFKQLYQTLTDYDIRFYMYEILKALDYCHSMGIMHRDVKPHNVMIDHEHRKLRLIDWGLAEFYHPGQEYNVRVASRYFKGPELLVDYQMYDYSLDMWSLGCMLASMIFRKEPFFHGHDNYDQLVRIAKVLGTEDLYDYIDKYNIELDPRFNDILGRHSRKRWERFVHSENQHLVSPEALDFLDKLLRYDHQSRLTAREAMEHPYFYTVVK
The experiment in a line: Biochemical assay for inhibitors of CK2α kinase activity (ADP-Glo). As to conditions: 0.2 nM CK2α, 50 μM peptide substrate, 15 μM ATP, read-out: Assay 1: CK2α Enzyme IC50. (In general: In ADP-Glo the light output rises with the ADP produced.)

Another test addresses T2, intracellular CK2α (Homo sapiens, UniProt P19784).
T2 construct: host or cells: HCT116 (ATCC CCL-247)
The experiment in a line: Cell-based NanoBRET assay for inhibitor binding to intracellular CK2α. As to conditions: HCT116 cells transiently transfected with CSNK2A2-NanoLuc fusion vector; Tracer K-5; 2 h; read-out: Assay 3: NanoBRET ™ assay for binding to intracellular CK2α. In outline: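 Apparent affinity came from BRET ratio (acceptor/donor ×1,000), with donor read at 450 nm and acceptor at 610 or 630 nm. Compounds competed off a tracer added at fixed concentration to cells carrying a NanoLuc-CK2α fusion.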

For the next test, the target named is T3, CLK2 (Homo sapiens, UniProt P49760).
T3 construct: purchased Carna Biosciences 04-127
The test is described as follows: Biochemical assay for inhibitors of CLK2 kinase activity (ADP-Glo). As to conditions: 20 nM CLK2, 50 μM peptide substrate, 100 μM ATP, read-out: Assay 2: CLK2 Enzyme IC50.

T3 sequence (P49760 whole entry): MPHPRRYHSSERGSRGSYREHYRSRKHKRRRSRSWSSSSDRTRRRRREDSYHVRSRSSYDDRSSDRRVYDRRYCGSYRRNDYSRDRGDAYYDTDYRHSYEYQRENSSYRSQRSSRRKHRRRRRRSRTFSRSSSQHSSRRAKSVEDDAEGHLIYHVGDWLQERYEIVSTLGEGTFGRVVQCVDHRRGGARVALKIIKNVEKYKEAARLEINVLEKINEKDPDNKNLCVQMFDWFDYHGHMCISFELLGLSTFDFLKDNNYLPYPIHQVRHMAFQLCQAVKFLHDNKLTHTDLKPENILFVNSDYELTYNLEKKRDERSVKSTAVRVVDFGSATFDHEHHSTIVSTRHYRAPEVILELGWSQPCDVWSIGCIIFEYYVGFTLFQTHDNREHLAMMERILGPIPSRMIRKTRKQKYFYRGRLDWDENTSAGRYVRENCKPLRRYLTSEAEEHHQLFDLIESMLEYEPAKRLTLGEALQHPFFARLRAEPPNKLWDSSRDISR
T2 sequence (P19784 whole entry): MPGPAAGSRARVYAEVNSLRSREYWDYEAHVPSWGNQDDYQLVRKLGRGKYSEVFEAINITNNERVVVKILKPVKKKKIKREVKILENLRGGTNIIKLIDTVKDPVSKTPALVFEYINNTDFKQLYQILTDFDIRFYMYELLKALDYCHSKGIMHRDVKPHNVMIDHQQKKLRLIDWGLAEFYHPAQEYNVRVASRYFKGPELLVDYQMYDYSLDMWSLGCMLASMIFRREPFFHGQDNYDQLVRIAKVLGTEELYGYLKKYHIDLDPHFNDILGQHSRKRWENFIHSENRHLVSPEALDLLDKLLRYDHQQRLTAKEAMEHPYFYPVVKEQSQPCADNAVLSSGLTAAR

On to `N#CCc1cc(CNCCCCOCCNc2cc(-n3cnnc3)cc3[nH]nnc23)cc(OC(F)(F)F)c1` [Example 141, 2-(3-(((4-(2-((6-(4H-1,2,4-triazol-4-yl)-1H-benzo[d][1,2,3]triazol-4-yl)amino)ethoxy)butyl)amino)methyl)-5-(trifluoromethoxy)phenyl)acetonitrile], for which the IC50 at CK2α is 2.77 nM; at intracellular CK2α, 2060 nM; on CLK2, 17800 nM.
For `FC(F)(F)c1ccc2[nH]c(CNCCCCOCCNc3cc(-n4cnnc4)cc4[nH]nnc34)cc2c1` [Example 142, 6-(4H-1,2,4-triazol-4-yl)-N-(2-(4-(((5-(trifluoromethyl)-1H-indol-2-yl)methyl)amino)butoxy)ethyl)-1H-benzo[d][1,2,3]triazol-4-amine], the IC50 stood at 5.43 nM on CK2α, 3860 nM at intracellular CK2α and 4790 nM at CLK2.
Regarding `FC(F)(F)c1ccc2[nH]c(CNCCCCOCCNc3cc(-c4cnoc4)cc4[nH]nnc34)cc2c1` [Example 143, 6-(isoxazol-4-yl)-N-(2-(4-(((5-(trifluoromethyl)-1H-indol-2-yl)methyl)amino)butoxy)ethyl)-1H-benzo[d][1,2,3]triazol-4-amine], the results for the IC50 on CK2α, at intracellular CK2α and on CLK2 were 7.01 nM, 564 nM and 625 nM, respectively.
`FC(F)(F)c1ccc2[nH]c(CNCCCCOCCOc3cc(-c4cnoc4)cc4[nH]ncc34)cc2c1` [Example 144, 4-(2-((6-(isoxazol-4-yl)-1H-indazol-4-yl)oxy)ethoxy)-N-((5-(trifluoromethyl)-1H-indol-2-yl)methyl)butan-1-amine]: the IC50 on CK2α is 4.72 nM; on intracellular CK2α, 347 nM; at CLK2 it was 271 nM.
For `N#CCc1cc(CNCCCCOC2CN(c3cc(-c4cnoc4)cc4[nH]ncc34)C2)cc(C(F)(F)F)c1` [Example 145, 2-(3-(((4-((1-(6-(isoxazol-4-yl)-1H-indazol-4-yl)azetidin-3-yl)oxy)butyl)amino)methyl)-5-(trifluoromethyl)phenyl)acetonitrile], the figures for the IC50 on CK2α, on intracellular CK2α and on CLK2 were 25.4 nM, 1730 nM and 186 nM, respectively.
The like results for `N#CCc1cc(CNCCCCOC2CN(c3cc(-c4cnoc4)cc4[nH]ncc34)C2)cc(OC(F)(F)F)c1` [Example 146, 2-(3-(((4-((1-(6-(isoxazol-4-yl)-1H-indazol-4-yl)azetidin-3-yl)oxy)butyl)amino)methyl)-5-(trifluoromethoxy)phenyl)acetonitrile] were, in that order, 8.18 nM, 299 nM and 152 nM.
`N#CCc1cc(CNCCCCOC2CN(c3cc(-n4cnnc4)cc4[nH]ncc34)C2)cc(OC(F)(F)F)c1` [Example 147, 2-(3-(((4-((1-(6-(4H-1,2,4-triazol-4-yl)-1H-indazol-4-yl)azetidin-3-yl)oxy)butyl)amino)methyl)-5-(trifluoromethoxy)phenyl)acetonitrile]: the IC50 at CK2α came to 8.8 nM; on intracellular CK2α, 528 nM; at CLK2 it was 300 nM.
`N#CCc1cc(CNCCCCOCCOc2cc(-n3cnnc3)cc3[nH]nnc23)cc(OC(F)(F)F)c1` [Example 148, 2-(3-(((4-(2-((6-(4H-1,2,4-triazol-4-yl)-1H-benzo[d][1,2,3]triazol-4-yl)oxy)ethoxy)butyl)amino)methyl)-5-(trifluoromethoxy)phenyl)acetonitrile]: the figures for the IC50 on CK2α, on intracellular CK2α and at CLK2 were 138 nM, greater than 50000 nM and greater than 50000 nM, respectively.
In the case of `FC(F)(F)c1ccc2[nH]c(CNCCCCOC3CN(c4cc(-c5ccnnc5)cc5[nH]nnc45)C3)cc2c1` [Example 149, 4-((1-(6-(pyridazin-4-yl)-1H-benzo[d][1,2,3]triazol-4-yl)azetidin-3-yl)oxy)-N-((5-(trifluoromethyl)-1H-indol-2-yl)methyl)butan-1-amine], the IC50 at CK2α was 255 nM; on intracellular CK2α, greater than 50000 nM; at CLK2, 15300 nM.
On to `FC(F)(F)Oc1ccc(CNCCCCOC2CN(c3cc(-c4ccnnc4)cc4[nH]nnc34)C2)cc1Cl` [Example 150, N-(3-chloro-4-(trifluoromethoxy)benzyl)-4-((1-(6-(pyridazin-4-yl)-1H-benzo[d][1,2,3]triazol-4-yl)azetidin-3-yl)oxy)butan-1-amine], for which the IC50 on CK2α worked out at 338 nM; on intracellular CK2α, 39300 nM; at CLK2, 17700 nM.
Take `N#CCc1cc(CNCCCCOC2CN(c3cc(-c4ccnnc4)cc4[nH]nnc34)C2)cc(OC(F)(F)F)c1` [Example 151, 2-(3-(((4-((1-(6-(pyridazin-4-yl)-1H-benzo[d][1,2,3]triazol-4-yl)azetidin-3-yl)oxy)butyl)amino)methyl)-5-(trifluoromethoxy)phenyl)acetonitrile]: the values for the IC50 on CK2α, at intracellular CK2α and on CLK2 were 187 nM, 19300 nM and 39800 nM, respectively.
As for `FC(F)(F)c1ccc2[nH]c(CNCCCCOC3CN(c4cc(-n5cnnc5)cc5[nH]nnc45)C3)cc2c1` [Example 152, 4-((1-(6-(4H-1,2,4-triazol-4-yl)-1H-benzo[d][1,2,3]triazol-4-yl)azetidin-3-yl)oxy)-N-((5-(trifluoromethyl)-1H-indol-2-yl)methyl)butan-1-amine], the figures for the IC50 on CK2α, on intracellular CK2α and on CLK2 were 49.7 nM, greater than 50000 nM and 5820 nM, respectively.
`FC(F)(F)Oc1ccc(CNCCCCOC2CN(c3cc(-n4cnnc4)cc4[nH]nnc34)C2)cc1Cl` [Example 153, 4-((1-(6-(4H-1,2,4-triazol-4-yl)-1H-benzo[d][1,2,3]triazol-4-yl)azetidin-3-yl)oxy)-N-(3-chloro-4-(trifluoromethoxy)benzyl)butan-1-amine]: the IC50 at CK2α worked out at 136 nM; on intracellular CK2α, 34200 nM; on CLK2, 11600 nM.
Regarding `N#CCc1cc(CNCCCCOC2CN(c3cc(-n4cnnc4)cc4[nH]nnc34)C2)cc(OC(F)(F)F)c1` [Example 154, 2-(3-(((4-((1-(6-(4H-1,2,4-triazol-4-yl)-1H-benzo[d][1,2,3]triazol-4-yl)azetidin-3-yl)oxy)butyl)amino)methyl)-5-(trifluoromethoxy)phenyl)acetonitrile], the IC50 on CK2α was 170 nM; at intracellular CK2α it was greater than 50000 nM; at CLK2 it was 24700 nM.
In the same order, the values of `N#Cc1[nH]ncc1-c1cc(NCCCNC(=O)CCNCc2ccc(OC(F)(F)F)c(Cl)c2)c2cn[nH]c2c1` [Example 156, 3-((3-chloro-4-(trifluoromethoxy)benzyl)amino)-N-(3-((6-(5-cyano-1H-pyrazol-4-yl)-1H-indazol-4-yl)amino)propyl)propanamide] are 0.64 nM, 108 nM and 71 nM.
Consider `O=C(CCNCc1ccc(OC(F)(F)F)c(Cl)c1)NCCCNc1cc(-c2nnco2)cc2[nH]ncc12` [Example 157, N-(3-((6-(1,3,4-oxadiazol-2-yl)-1H-indazol-4-yl)amino)propyl)-3-((3-chloro-4-(trifluoromethoxy)benzyl)amino)propanamide], for which the IC50 on CK2α was 9.06 nM; at intracellular CK2α, 828 nM; on CLK2, 1650 nM.
Take `O=C(CCNCc1ccc(OC(F)(F)F)c(Cl)c1)NCCCNc1cc(-c2ccncc2)c(Cl)c2[nH]ncc12` [Example 158, 3-((3-chloro-4-(trifluoromethoxy)benzyl)amino)-N-(3-((7-chloro-6-(pyridin-4-yl)-1H-indazol-4-yl)amino)propyl)propanamide]: the IC50 on CK2α was 11 nM; on intracellular CK2α, 738 nM; on CLK2 it was 614 nM.
Take `Cc1[nH]ncc1-c1cc(NCCCNC(=O)CCNCc2ccc(OC(F)(F)F)c(Cl)c2)c2cn[nH]c2c1` [Example 159, 3-((3-chloro-4-(trifluoromethoxy)benzyl)amino)-N-(3-((6-(5-methyl-1H-pyrazol-4-yl)-1H-indazol-4-yl)amino)propyl)propanamide]: the IC50 was determined as 1.93 nM at CK2α, 703 nM on intracellular CK2α and 64.3 nM at CLK2.
As to `N#Cc1cc(NCCCNC(=O)CCNCc2ccc(OC(F)(F)F)c(Cl)c2)c2cn[nH]c2c1` [Example 160, 3-((3-chloro-4-(trifluoromethoxy)benzyl)amino)-N-(3-((6-cyano-1H-indazol-4-yl)amino)propyl)propanamide], the IC50 amounted to 19.1 nM at CK2α, 1110 nM on intracellular CK2α and 221 nM on CLK2.
Take `O=C(CCNCc1ccc(OC(F)(F)F)c(Cl)c1)NCCCNc1cc(-n2ccnn2)cc2[nH]ncc12` [Example 161, N-(3-((6-(1H-1,2,3-triazol-1-yl)-1H-indazol-4-yl)amino)propyl)-3-((3-chloro-4-(trifluoromethoxy)benzyl)amino)propanamide]: the IC50 turned out to be 2.02 nM at CK2α, 193 nM on intracellular CK2α and 667 nM at CLK2.
